Structures are written as SMILES.

This test deals with HL-60. The experiment in a line: Cytotoxicity against human HL60 cells after 72 hrs by MTT method. The class given is functional, cell-based. The note with it: HL-60, 72 h. On the technique in general: Tetrazolium dyes change colour on reduction, which living cells bring about.

Turning to `C=C(C)[C@@]1(O)[C@@H]2OC3(c4ccccc4)O[C@H]1[C@@H](C)[C@@]1(O3)[C@H]2[C@H](OC(C)=O)[C@@](C)(OC(=O)c2ccccc2)[C@@H](O)[C@@]2(OC(C)=O)[C@H]1C[C@H](C)[C@@H]2OC(C)=O` [TRIGOHOWNIN A], the 50% inhibitory concentration (IC50) came to 17 µM. This lies in the double-digit micromolar range.

The compound `C=C(C)[C@@]12OC3(c4ccccc4)O[C@@H]1[C@@H]1[C@H](OC(C)=O)[C@@](C)(O)[C@@H](OC(C)=O)[C@@]4(OC(=O)c5ccccc5)[C@@H](C[C@H](C)[C@@H]4OC(C)=O)[C@@]1(O3)[C@H](C)[C@@H]2OC(C)=O` [TRIGOHOWNIN D] showed a half-maximal inhibitory concentration (IC50) of 9.3 µM. This IC50 is about 1.8-fold lower than that of the compound before.

The IC50 is the concentration at which inhibition is half-maximal. Low readings indicate higher potency, high ones lower potency.

The values above are taken from ChEMBL document CHEMBL1781972, “Daphnane-type diterpenoids from Trigonostemon howii” (J Nat Prod, 2011).
